Test [1] is described as follows: Cytotoxicity against human KATO III cells after 72 hrs by MTT assay. The class given is functional, cell-based, KATO III cell. (In general: Tetrazolium dyes change colour on reduction, which living cells bring about.)
In a further test the test system is Ehrlich. The test can be described thus: Cytotoxicity against mouse Ehrlich cells after 72 hrs by MTT assay. The class given is functional, cell-based.

Converted amounts (≈) assume the structure as drawn.

The IC50 is the concentration needed to halve the response being measured. Low values mean greater potency, high ones weaker potency. With `C=C(C)[C@@H]1C[C@H]2O[C@@]23C(=CC(=O)[C@]2(C)[C@@H](/C(C)=C\C(O)CC(C)C(=O)O)C[C@@H](O)[C@]23C)[C@@]1(C)CCC(=O)OC` (some centres undefined), the IC50 (in test [1]; with Ehrlich) was 1.1 µg/mL (≈ 2.02 µM) in each case.

Take `CC(C)c1cccc(=O)c(O)c1` [HINOKITIOL]: the IC50 (in test [1]; in the test on Ehrlich) was 0.6 µg/mL (≈ 3.65 µM) in each case.

Source of the values: ChEMBL document CHEMBL1148124, “New lanostanoids, elfvingic acids A-H, from the fruit body of Elfvingia applanata” (J Nat Prod, 2002).
